Experimental data taken from ChEMBL document CHEMBL5537172 (J Med Chem, 2024).
Active and inactive are the calls of the source. The rule behind the calls is not given here.

Assays:
[1] = Oral bioavailability in dog at 3 mg/kg measured upto 24 hrs by LC-MS/MS analysis; format: ADME, organism-based, Canis lupus familiaris; conditions: in vivo
[2] = Half life in mouse at 1 mg/kg, iv measured upto 24 hrs by LC-MS/MS analysis; format: ADME, organism-based; conditions: in vivo
[3] = Dissociation constant, pKa of compound; format: physicochemical
cells = conditions: Homo sapiens, 92-1, 72 h
[4] = Tmax in dog at 3 mg/kg, po measured upto 24 hrs by LC-MS/MS analysis; format: ADME, organism-based, Canis lupus familiaris; conditions: in vivo
[5] = AUCinfinity in mouse at 1 mg/kg, iv measured upto 24 hrs by LC-MS/MS analysis; format: ADME, organism-based; conditions: in vivo
[6] = Toxicity in mouse xenografted with human 92-1 cells assessed as body weight loss at 75 to 150 mg/kg, po bid; format: organism-based; conditions: in vivo, dose 75-150 mg/kg
[7] = Half-life in rat at 1 mg/kg, iv measured upto 24 hrs by LC-MS/MS analysis; format: ADME, organism-based; conditions: in vivo
[8] = AUCinfinity in dog at 0.3 mg/kg, iv measured upto 24 hrs by LC-MS/MS analysis; format: ADME, organism-based, Canis lupus familiaris; conditions: in vivo
[9] = biological target: T1, Protein kinase C beta type (Homo sapiens, UniProt P05771); experiment: Inhibition of PKCbeta1 (unknown origin)
T1 sequence (P05771 whole entry): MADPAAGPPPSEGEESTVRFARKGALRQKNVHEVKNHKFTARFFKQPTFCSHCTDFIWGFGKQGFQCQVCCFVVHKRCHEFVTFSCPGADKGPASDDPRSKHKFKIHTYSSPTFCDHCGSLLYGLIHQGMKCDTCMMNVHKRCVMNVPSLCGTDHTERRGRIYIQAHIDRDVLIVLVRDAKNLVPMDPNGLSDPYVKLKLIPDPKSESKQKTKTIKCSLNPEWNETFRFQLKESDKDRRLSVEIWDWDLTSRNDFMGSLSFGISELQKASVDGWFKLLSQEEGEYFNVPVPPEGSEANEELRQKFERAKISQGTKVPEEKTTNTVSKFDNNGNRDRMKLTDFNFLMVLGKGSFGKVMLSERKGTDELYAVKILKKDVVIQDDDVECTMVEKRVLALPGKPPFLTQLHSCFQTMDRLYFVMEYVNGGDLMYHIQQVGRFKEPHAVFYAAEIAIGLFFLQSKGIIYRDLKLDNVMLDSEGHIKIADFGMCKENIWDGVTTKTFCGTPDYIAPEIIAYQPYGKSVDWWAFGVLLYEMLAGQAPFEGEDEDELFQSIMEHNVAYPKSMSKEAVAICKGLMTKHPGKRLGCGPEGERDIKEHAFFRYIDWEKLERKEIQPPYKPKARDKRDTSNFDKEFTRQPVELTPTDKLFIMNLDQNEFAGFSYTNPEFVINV

[10] = Tmax in mouse at 10 mg/kg, po measured upto 24 hrs by LC-MS/MS analysis; format: ADME, organism-based; conditions: in vivo
[11] = Cmax in dog at 3 mg/kg, po measured upto 24 hrs by LC-MS/MS analysis; format: ADME, organism-based, Canis lupus familiaris; conditions: in vivo
[12] = Oral bioavailability in mouse at 10 mg/kg measured upto 24 hrs by LC-MS/MS analysis; format: ADME, organism-based; conditions: in vivo
[13] = AUCinfinity in dog at 3 mg/kg, po measured upto 24 hrs by LC-MS/MS analysis; format: ADME, organism-based, Canis lupus familiaris; conditions: in vivo
[14] = biological target: 5-hydroxytryptamine receptor 2B (Homo sapiens, UniProt P41595); experiment: Agonist activity at 5HT2B (unknown origin); format: toxicity
Chain of 5-hydroxytryptamine receptor 2B (P41595 whole entry): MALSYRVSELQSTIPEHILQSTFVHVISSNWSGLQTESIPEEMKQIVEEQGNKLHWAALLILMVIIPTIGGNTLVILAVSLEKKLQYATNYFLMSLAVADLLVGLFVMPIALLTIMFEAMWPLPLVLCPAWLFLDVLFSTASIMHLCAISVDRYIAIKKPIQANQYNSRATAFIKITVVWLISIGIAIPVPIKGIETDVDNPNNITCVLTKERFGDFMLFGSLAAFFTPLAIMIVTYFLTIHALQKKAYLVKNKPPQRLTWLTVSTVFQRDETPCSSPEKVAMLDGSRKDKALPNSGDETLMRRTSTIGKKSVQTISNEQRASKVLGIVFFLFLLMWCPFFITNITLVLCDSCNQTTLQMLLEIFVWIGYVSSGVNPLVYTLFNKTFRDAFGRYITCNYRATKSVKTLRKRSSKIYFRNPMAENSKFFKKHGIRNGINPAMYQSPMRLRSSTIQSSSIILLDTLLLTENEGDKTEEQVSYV

[15] = AUCinfinity in rat at 1 mg/kg, iv measured upto 24 hrs by LC-MS/MS analysis; format: ADME, organism-based; conditions: in vivo
[16] = Cmax in rat at 3 mg/kg, po measured upto 24 hrs by LC-MS/MS analysis; format: ADME, organism-based; conditions: in vivo
SK-MEL-28 = experiment: cells; conditions: Homo sapiens
92-1 [17] = experiment: Antitumor activity against human 92-1 cells xenografted in po dosed mouse assessed as tumor suppression administered twice daily; format: functional, organism-based; conditions: dose lower […], dose upper 75.0 mg/kg
[18] = Volume of distribution at steady state in mouse at 1 mg/kg, iv measured upto 24 hrs by LC-MS/MS analysis; format: ADME, organism-based; conditions: in vivo, read-out: Vdss
[19] = biological target: T1, Protein kinase C beta type; experiment: Inhibition of PKCbeta2 (unknown origin)
[20] = Clearance in mouse at 1 mg/kg, iv measured upto 24 hrs by LC-MS/MS analysis; format: ADME, organism-based; conditions: in vivo
[21] = Volume of distribution at steady state in rat at 1 mg/kg, iv measured upto 24 hrs by LC-MS/MS analysis; format: ADME, organism-based; conditions: in vivo, read-out: Vdss
[22] = AUCinfinity in mouse at 10 mg/kg, po measured upto 24 hrs by LC-MS/MS analysis; format: ADME, organism-based; conditions: in vivo
92-1 [23] = experiment: Antitumor activity against human 92-1 cells xenografted in mouse assessed as tumor suppression at 75 to 150 mg/kg, po administered twice daily; format: functional, organism-based; conditions: dose lower 75.0 mg/kg, dose upper […]
92-1 [24] = experiment: Antitumor activity against human 92-1 cells xenografted in mouse assessed as tumor suppression at 75 mg/kg, po administered twice daily measured after compound withdrawal; format: functional, organism-based
[25] = biological target: Protein kinase C gamma type (Homo sapiens, UniProt P05129); experiment: Inhibition of PKCgamma (unknown origin)
[26] = AUCinfinity in rat at 3 mg/kg, po measured upto 24 hrs by LC-MS/MS analysis; format: ADME, organism-based; conditions: in vivo
[27] = biological target: Protein kinase C delta type (Homo sapiens, UniProt Q05655); experiment: Inhibition of PKCdelta (unknown origin)
Chain of Protein kinase C delta type (Q05655 whole entry): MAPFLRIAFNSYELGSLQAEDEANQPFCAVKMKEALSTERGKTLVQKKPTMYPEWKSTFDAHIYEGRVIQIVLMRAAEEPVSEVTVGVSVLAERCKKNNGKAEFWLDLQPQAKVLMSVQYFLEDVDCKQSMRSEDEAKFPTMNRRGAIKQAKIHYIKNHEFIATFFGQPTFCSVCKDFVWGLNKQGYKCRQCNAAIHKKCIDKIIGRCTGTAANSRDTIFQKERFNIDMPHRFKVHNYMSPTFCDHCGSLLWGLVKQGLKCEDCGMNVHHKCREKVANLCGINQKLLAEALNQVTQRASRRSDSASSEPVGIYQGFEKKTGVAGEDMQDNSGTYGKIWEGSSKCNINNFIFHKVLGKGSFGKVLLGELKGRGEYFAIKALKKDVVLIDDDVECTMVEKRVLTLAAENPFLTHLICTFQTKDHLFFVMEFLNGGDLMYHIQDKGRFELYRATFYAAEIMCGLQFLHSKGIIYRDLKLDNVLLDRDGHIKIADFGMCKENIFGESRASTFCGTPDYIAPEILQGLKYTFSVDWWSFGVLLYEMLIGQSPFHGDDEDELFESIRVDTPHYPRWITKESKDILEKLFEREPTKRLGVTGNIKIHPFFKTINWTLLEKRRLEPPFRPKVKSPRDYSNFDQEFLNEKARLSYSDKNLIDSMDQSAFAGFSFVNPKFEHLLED

[28] = biological target: Protein kinase C eta type (Homo sapiens, UniProt P24723); experiment: Inhibition of PKCeta (unknown origin)
Chain of Protein kinase C eta type (P24723 whole entry): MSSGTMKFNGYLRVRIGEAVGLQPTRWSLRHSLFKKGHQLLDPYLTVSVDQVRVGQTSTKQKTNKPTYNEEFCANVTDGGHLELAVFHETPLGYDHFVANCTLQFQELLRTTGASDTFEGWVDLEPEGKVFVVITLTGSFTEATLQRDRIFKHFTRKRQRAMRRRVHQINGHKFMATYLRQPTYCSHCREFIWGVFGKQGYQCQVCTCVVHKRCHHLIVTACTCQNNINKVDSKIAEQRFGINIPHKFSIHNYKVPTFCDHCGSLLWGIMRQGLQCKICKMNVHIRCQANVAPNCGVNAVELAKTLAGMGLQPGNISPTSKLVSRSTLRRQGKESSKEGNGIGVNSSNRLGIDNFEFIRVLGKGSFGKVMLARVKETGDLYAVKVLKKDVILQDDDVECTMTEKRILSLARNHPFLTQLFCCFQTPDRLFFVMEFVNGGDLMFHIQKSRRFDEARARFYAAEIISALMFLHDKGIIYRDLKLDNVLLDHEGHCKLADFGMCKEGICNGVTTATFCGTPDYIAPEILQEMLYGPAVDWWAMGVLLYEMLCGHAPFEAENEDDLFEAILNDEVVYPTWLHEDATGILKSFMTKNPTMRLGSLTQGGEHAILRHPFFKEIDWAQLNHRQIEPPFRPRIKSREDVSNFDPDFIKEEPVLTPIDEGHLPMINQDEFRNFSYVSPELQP

[29] = Oral bioavailability in rat at 3 mg/kg measured upto 24 hrs by LC-MS/MS analysis; format: ADME, organism-based; conditions: in vivo
Mus musculus = experiment: In vivo inhibition of PKCdelta in mouse xenografted with human 92-1 cells assessed as reduction in phosphorylated levels at 15 to 72 mg/kg, po; format: functional, organism-based; conditions: dose lower […], dose upper […]
[30] = Clearance in rat at 1 mg/kg, iv measured upto 24 hrs by LC-MS/MS analysis; format: ADME, organism-based; conditions: in vivo
[31] = Tmax in rat at 3 mg/kg, po measured upto 24 hrs by LC-MS/MS analysis; format: ADME, organism-based; conditions: in vivo
[32] = Cmax in mouse at 10 mg/kg, po measured upto 24 hrs by LC-MS/MS analysis; format: ADME, organism-based; conditions: in vivo
[33] = Volume of distribution at steady state in dog at 0.3 mg/kg, iv measured upto 24 hrs by LC-MS/MS analysis; format: ADME, organism-based, Canis lupus familiaris; conditions: in vivo, read-out: Vdss
[34] = Half-life in dog at 0.3 mg/kg, iv measured upto 24 hrs by LC-MS/MS analysis; format: ADME, organism-based, Canis lupus familiaris; conditions: in vivo
[35] = biological target: T2, Protein kinase C epsilon type (Homo sapiens, UniProt Q02156); experiment: Inhibition of PKCepsilon (unknown origin)
T2 sequence (Q02156 whole entry): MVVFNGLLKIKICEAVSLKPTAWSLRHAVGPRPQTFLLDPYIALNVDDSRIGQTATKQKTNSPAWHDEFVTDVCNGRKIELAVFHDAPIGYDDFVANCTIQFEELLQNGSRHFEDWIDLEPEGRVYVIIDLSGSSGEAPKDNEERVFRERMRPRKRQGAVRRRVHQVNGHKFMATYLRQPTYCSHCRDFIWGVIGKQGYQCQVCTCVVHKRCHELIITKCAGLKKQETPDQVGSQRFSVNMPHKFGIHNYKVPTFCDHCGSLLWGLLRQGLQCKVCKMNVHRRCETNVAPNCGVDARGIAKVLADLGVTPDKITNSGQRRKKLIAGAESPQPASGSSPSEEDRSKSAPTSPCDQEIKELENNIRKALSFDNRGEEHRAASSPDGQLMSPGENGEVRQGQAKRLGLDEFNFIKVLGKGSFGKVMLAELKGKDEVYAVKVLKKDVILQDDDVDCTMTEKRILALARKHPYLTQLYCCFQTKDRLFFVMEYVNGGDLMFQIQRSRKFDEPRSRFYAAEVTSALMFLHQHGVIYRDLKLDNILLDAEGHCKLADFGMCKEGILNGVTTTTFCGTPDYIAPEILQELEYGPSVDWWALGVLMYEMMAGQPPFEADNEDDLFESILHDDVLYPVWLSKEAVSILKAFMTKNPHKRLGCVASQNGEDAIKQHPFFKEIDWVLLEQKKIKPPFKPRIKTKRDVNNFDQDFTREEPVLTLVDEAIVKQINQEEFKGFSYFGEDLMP

[36] = Toxicity in mouse xenografted with human 92-1 cells assessed as body weight loss at 15 to 150 mg/kg, po bid; format: organism-based; conditions: in vivo, dose 15-150 mg/kg
[37] = Clearance in dog at 0.3 mg/kg, iv measured upto 24 hrs by LC-MS/MS analysis; format: ADME, organism-based, Canis lupus familiaris; conditions: in vivo

Question: Which bioavailability [1] does the source give for CC1(N)CCN(c2cccnc2NC(=O)c2nc(-c3ncccc3C(F)(F)F)cnc2N)CC1 [DAROVASERTIB] here?
Answer: 76%

Question: What about the half-life [2] of the same compound?
Answer: 1.1 h

Question: What about the pKa [3] of the same compound?
Answer: 9

Question: And the EC50 (cells)?
Answer: 170 nM

Question: And the Tmax [4]?
Answer: 0.5 h

Question: And the AUC(0-inf) [5]?
Answer: 1.36 µM·h

Question: What about the Activity [6] of the same compound?
Answer: Non-Toxic

Question: What about the half-life [7] of the same compound?
Answer: 5.7 h

Question: And the AUC(0-inf) [8]?
Answer: 2.59 µM·h

Question: What about the IC50 [9] of the same compound?
Answer: 66 nM

Question: What about the Tmax [10] of the same compound?
Answer: 2 h

Question: And the Cmax [11]?
Answer: 6120 nM

Question: And the bioavailability [12]?
Answer: 17%

Question: What about the AUC(0-inf) [13] of the same compound?
Answer: 21.4 µM·h

Question: What about the EC50 [14] of the same compound?
Answer: > 30000 nM

Question: And the AUC(0-inf) [15]?
Answer: 1.45 µM·h

Question: What about the Cmax [16] of the same compound?
Answer: 509 nM

Question: And the IC50 (SK-MEL-28)?
Answer: > 10000 nM

Question: What about the Activity (92-1 [17]) of the same compound?
Answer: Dose-Dependent Effect

Question: And the Vd [18]?
Answer: 1.6 L/kg

Question: And the IC50 [19]?
Answer: 58 nM

Question: And the clearance [20]?
Answer: 26 mL/min/kg

Question: And the Vd [21]?
Answer: 3.4 L/kg

Question: And the AUC(0-inf) [22]?
Answer: 2.17 µM·h

Question: And the Activity (92-1 [23])?
Answer: Active

Question: And the Activity (92-1 [24])?
Answer: inactive

Question: What about the IC50 [25] of the same compound?
Answer: 109 nM

Question: And the AUC(0-inf) [26]?
Answer: 2.39 µM·h

Question: What about the IC50 [27] of the same compound?
Answer: 6.9 nM

Question: What about the IC50 [28] of the same compound?
Answer: 13.3 nM

Question: And the bioavailability [29]?
Answer: 55%

Question: And the Activity (Mus musculus)?
Answer: Active

Question: What about the clearance [30] of the same compound?
Answer: 24 mL/min/kg

Question: What about the Tmax [31] of the same compound?
Answer: 0.3 h

Question: And the Cmax [32]?
Answer: 667 nM

Question: And the Vd [33]?
Answer: 1.4 L/kg

Question: And the half-life [34]?
Answer: 4.4 h

Question: What about the IC50 [35] of the same compound?
Answer: 2.9 nM

Question: What about the Activity [36] of the same compound?
Answer: Non-Toxic

Question: What about the clearance [37] of the same compound?
Answer: 5 mL/min/kg
